Results: ChEMBL document CHEMBL1201861, “Genomics of Drug Sensitity in Cancer screening data, Wellcome Trust Sanger Institute”

Legend:
MEL-JUSO = assay: cells; type: functional, cell-based; settings: Homo sapiens;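 note: growth inhibition of human MEL-JUSO cells, read out with a cell viability assay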
Description: SANGER: Inhibition of human MEL-JUSO cell growth in a cell viability assay.

HSC-2 = assay: cells; type: functional, cell-based; settings: Homo sapiens;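 note: growth inhibition of human HSC-2 cells, read out by a cell viability assay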
Description: SANGER: Inhibition of human HSC-2 cell growth in a cell viability assay.

NCI-H2141 = assay: cells; type: functional, cell-based, Homo sapiens; settings: Homo sapiens, NCI-H2141;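 note: growth inhibition of human NCI-H2141 cells, read out with a cell viability assay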
Description: SANGER: Inhibition of human NCI-H2141 cell growth in a cell viability assay.

UMC-11 = assay: cells; type: functional, cell-based; settings: Homo sapiens;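 note: growth inhibition of UMC-11 cells, read out with a cell viability assay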
Description: SANGER: Inhibition of human UMC-11 cell growth in a cell viability assay.

OE19 = assay: cells; type: functional, cell-based; settings: Homo sapiens;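 note: growth inhibition of OE19 cells, measured through a cell viability read-out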
Description: SANGER: Inhibition of human OE19 cell growth in a cell viability assay.

SW780 = assay: cells; type: functional, cell-based; settings: Homo sapiens;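 note: growth inhibition of the cells, read out with a cell viability assay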
Description: SANGER: Inhibition of human SW780 cell growth in a cell viability assay.

NCI-H1417 = assay: cells; type: functional, cell-based, Homo sapiens; settings: Homo sapiens, NCI-H1417;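 note: human NCI-H1417 cells, growth inhibition determined with a cell viability readout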
Description: SANGER: Inhibition of human NCI-H1417 cell growth in a cell viability assay.

PC-3 = assay: cells; type: functional, cell-based; settings: Homo sapiens;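 note: cell viability assay measuring growth inhibition of PC-3 cells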
Description: SANGER: Inhibition of human PC-3 cell growth in a cell viability assay.

NCI-H1437 = assay: cells; type: functional, cell-based; settings: Homo sapiens;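 note: growth inhibition of human NCI-H1437 cells, read out by a cell viability assay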
Description: SANGER: Inhibition of human NCI-H1437 cell growth in a cell viability assay.

BHT-101 = assay: cells; type: functional, cell-based; settings: Homo sapiens
Description: SANGER: Inhibition of human BHT-101 cell growth in a cell viability assay.

NUGC-3 = assay: cells; type: functional, cell-based; settings: Homo sapiens;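 note: growth inhibition of human NUGC-3 cells, read out with a cell viability assay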
Description: SANGER: Inhibition of human NUGC-3 cell growth in a cell viability assay.

KYSE-410 = assay: cells; type: functional, cell-based; settings: Homo sapiens;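 note: growth inhibition of KYSE-410 cells, measured through a cell viability readout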
Description: SANGER: Inhibition of human KYSE-410 cell growth in a cell viability assay.

769-P = assay: cells; type: functional, cell-based; settings: Homo sapiens
Description: SANGER: Inhibition of human 769-P cell growth in a cell viability assay.

KU-19-19 = assay: cells; type: functional, cell-based; settings: Homo sapiens
Description: SANGER: Inhibition of human KU-19-19 cell growth in a cell viability assay.

NCI-H522 = assay: cells; type: functional, cell-based; settings: Homo sapiens;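 note: cell viability assay measuring growth inhibition of human NCI-H522 cells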
Description: SANGER: Inhibition of human NCI-H522 cell growth in a cell viability assay.

NALM-6 = assay: cells; type: functional, cell-based, Homo sapiens; settings: Homo sapiens, NALM-6;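 note: growth inhibition of NALM-6 cells, read out with a cell viability assay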
Description: SANGER: Inhibition of human NALM-6 cell growth in a cell viability assay.

BPH-1 = assay: cells; type: functional, cell-based; settings: Homo sapiens;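 note: cell viability assay measuring growth inhibition of human BPH-1 cells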
Description: SANGER: Inhibition of human BPH-1 cell growth in a cell viability assay.

COR-L279 = assay: SANGER: Inhibition of human COR-L279 cell growth in a cell viability assay.; type: functional, cell-based; settings: Homo sapiens, COR-L279
TYK-nu = assay: cells; type: functional, cell-based; settings: Homo sapiens;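 note: growth inhibition of human TYK-nu cells, read out by a cell viability assay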
Description: SANGER: Inhibition of human TYK-nu cell growth in a cell viability assay.

BC-3 = assay: cells; type: functional, cell-based, Homo sapiens; settings: Homo sapiens, BC-3;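 note: cell viability assay measuring growth inhibition of human BC-3 cells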
Description: SANGER: Inhibition of human BC-3 cell growth in a cell viability assay.

MKN-7 = assay: cells; type: functional, cell-based; settings: Homo sapiens;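 note: growth inhibition of MKN-7 cells, read out with a cell viability assay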
Description: SANGER: Inhibition of human MKN7 cell growth in a cell viability assay.

SW626 = assay: cells; type: functional, cell-based; settings: Homo sapiens;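 note: growth inhibition of SW626 cells, measured with a cell viability assay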
Description: SANGER: Inhibition of human SW626 cell growth in a cell viability assay.

DMS-79 = assay: cells; type: functional, cell-based, Homo sapiens; settings: Homo sapiens, DMS-79
Description: SANGER: Inhibition of human DMS-79 cell growth in a cell viability assay.

NCI-H187 = assay: cells; type: functional, cell-based, Homo sapiens; settings: Homo sapiens, NCI-H187;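 note: growth inhibition of NCI-H187 cells, read out as cell viability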
Description: SANGER: Inhibition of human NCI-H187 cell growth in a cell viability assay.

T84 = assay: cells; type: functional, cell-based; settings: Homo sapiens;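 note: growth inhibition measured with a cell viability readout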
Description: SANGER: Inhibition of human T84 cell growth in a cell viability assay.

LC4-1 = assay: cells; type: functional, cell-based, Homo sapiens; settings: Homo sapiens, LC4-1;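 note: growth inhibition of LC4-1 cells, read out with a cell viability assay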
Description: SANGER: Inhibition of human LC4-1 cell growth in a cell viability assay.

RD = assay: cells; type: functional, cell-based; settings: Homo sapiens
Description: SANGER: Inhibition of human RD cell growth in a cell viability assay.

SW837 = assay: cells; type: functional, cell-based; settings: Homo sapiens;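 note: growth inhibition of SW837 cells, determined with a cell viability assay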
Description: SANGER: Inhibition of human SW837 cell growth in a cell viability assay.

Huh-7 = assay: cells; type: functional, cell-based; settings: Homo sapiens;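 note: HuH-7 cell growth inhibition, read out with a cell viability assay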
Description: SANGER: Inhibition of human HuH-7 cell growth in a cell viability assay.

RMG-I = assay: cells; type: functional, cell-based; settings: Homo sapiens;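 note: growth inhibition of human RMG-I cells, read out with a cell viability assay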
Description: SANGER: Inhibition of human RMG-I cell growth in a cell viability assay.

OAW-28 = assay: cells; type: functional, cell-based; settings: Homo sapiens;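 note: growth inhibition of OAW-28 cells, read out with a cell viability assay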
Description: SANGER: Inhibition of human OAW-28 cell growth in a cell viability assay.

WM-115 = assay: cells; type: functional, cell-based; settings: Homo sapiens
Description: SANGER: Inhibition of human WM-115 cell growth in a cell viability assay.

OPM-2 = assay: cells; type: functional, cell-based, Homo sapiens; settings: Homo sapiens, OPM-2;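 note: growth of OPM-2 cells measured with a viability assay, IC50 for suppression of proliferation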
Description: SANGER: Inhibition of human OPM-2 cell growth in a cell viability assay.

CAL-72 = assay: cells; type: functional, cell-based; settings: Homo sapiens;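 note: cell viability assay measuring inhibition of proliferation in the CAL-72 cell line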
Description: SANGER: Inhibition of human CAL-72 cell growth in a cell viability assay.

MDA-MB-231 = assay: cells; type: functional, cell-based; settings: Homo sapiens
Description: SANGER: Inhibition of human MDA-MB-231 cell growth in a cell viability assay.

K052 = assay: cells; type: functional, cell-based, Homo sapiens; settings: Homo sapiens, K052;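 note: Read-out from a cell viability assay, IC50 reflecting suppression of K052 cell growth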
Description: SANGER: Inhibition of human K052 cell growth in a cell viability assay.

MeWo = assay: cells; type: functional, cell-based; settings: Homo sapiens;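 note: growth inhibition of MeWo cells, determined by a cell viability readout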
Description: SANGER: Inhibition of human Mewo cell growth in a cell viability assay.

UACC-812 = assay: cells; type: functional, cell-based; settings: Homo sapiens
Description: SANGER: Inhibition of human UACC-812 cell growth in a cell viability assay.

NCI-H1694 = assay: cells; type: functional, cell-based, Homo sapiens; settings: Homo sapiens, NCI-H1694;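 note: cell viability assay measuring inhibition of growth in human NCI-H1694 cells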
Description: SANGER: Inhibition of human NCI-H1694 cell growth in a cell viability assay.

SW1990 = assay: cells; type: functional, cell-based; settings: Homo sapiens
Description: SANGER: Inhibition of human SW1990 cell growth in a cell viability assay.

NCI-H1755 = assay: cells; type: functional, cell-based; settings: Homo sapiens;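 note: cell viability readout used to measure growth inhibition of NCI-H1755 cells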
Description: SANGER: Inhibition of human NCI-H1755 cell growth in a cell viability assay.

A2780 = assay: cells; type: functional, cell-based; settings: Homo sapiens;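 note: growth inhibition of A2780 cells, read out with a cell viability assay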
Description: SANGER: Inhibition of human A2780 cell growth in a cell viability assay.

YT = assay: cells; type: functional, cell-based, Homo sapiens; settings: Homo sapiens, YT
Description: SANGER: Inhibition of human YT cell growth in a cell viability assay.

SK-N-AS = assay: cells; type: functional, cell-based; settings: Homo sapiens;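 note: growth inhibition of human SK-N-AS cells, measured with a cell viability assay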
Description: SANGER: Inhibition of human SK-N-AS cell growth in a cell viability assay.

SK-MM-2 = assay: cells; type: functional, cell-based, Homo sapiens; settings: Homo sapiens, SK-MM-2;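 note: growth inhibition of human SK-MM-2 cells, read out with a cell viability assay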
Description: SANGER: Inhibition of human SK-MM-2 cell growth in a cell viability assay.

RPMI-2650 = assay: cells; type: functional, cell-based; settings: Homo sapiens
Description: SANGER: Inhibition of human RPMI-2650 cell growth in a cell viability assay.

ST486 = assay: SANGER: Inhibition of human ST486 cell growth in a cell viability assay.; type: functional, cell-based; settings: Homo sapiens, ST486
NCI-H1882 = assay: cells; type: functional, cell-based, Homo sapiens; settings: Homo sapiens, NCI-H1882;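 note: growth inhibition of the cell line, determined with a viability assay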
Description: SANGER: Inhibition of human NCI-H1882 cell growth in a cell viability assay.

HO-1-N-1 = assay: cells; type: functional, cell-based; settings: Homo sapiens;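 note: growth inhibition of human HO-1-N-1 cells, read out with a cell viability assay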
Description: SANGER: Inhibition of human HO-1-N-1 cell growth in a cell viability assay.

DBTRG-05MG = assay: cells; type: functional, cell-based; settings: Homo sapiens;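 note: cell viability assay measuring growth inhibition of human DBTRG-05MG cells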
Description: SANGER: Inhibition of human DBTRG-05MG cell growth in a cell viability assay.

HCC 2998 = assay: cells; type: functional, cell-based; settings: Homo sapiens;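 note: growth inhibition of human HCC2998 cells, measured with a cell viability read-out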
Description: SANGER: Inhibition of human HCC2998 cell growth in a cell viability assay.

BEN = assay: cells; type: functional, cell-based; settings: Homo sapiens;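 note: growth inhibition of the BEN cell line, read out with a cell viability assay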
Description: SANGER: Inhibition of human BEN cell growth in a cell viability assay.

TE-15 = assay: cells; type: functional, cell-based, Homo sapiens; settings: Homo sapiens, TE-15;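 note: cell viability readout of growth inhibition in TE-15 cells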
Description: SANGER: Inhibition of human TE-15 cell growth in a cell viability assay.

P31-FUJ = assay: cells; type: functional, cell-based, Homo sapiens; settings: Homo sapiens, P31-FUJ;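 note: growth inhibition of P31-FUJ cells, read out with a viability assay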
Description: SANGER: Inhibition of human P31-FUJ cell growth in a cell viability assay.

YKG-1 = assay: cells; type: functional, cell-based; settings: Homo sapiens;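 note: cell growth inhibition, read out with a viability assay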
Description: SANGER: Inhibition of human YKG-1 cell growth in a cell viability assay.

HuP-T4 = assay: cells; type: functional, cell-based; settings: Homo sapiens;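 note: cell viability assay measuring how much HuP-T4 cell growth is inhibited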
Description: SANGER: Inhibition of human HuP-T4 cell growth in a cell viability assay.

SW1417 = assay: cells; type: functional, cell-based; settings: Homo sapiens;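 note: growth inhibition of human SW1417 cells, read out with a cell viability assay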
Description: SANGER: Inhibition of human SW1417 cell growth in a cell viability assay.

SNU-C1 = assay: cells; type: functional, cell-based, Homo sapiens; settings: Homo sapiens, SNU-C1;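 note: growth inhibition of SNU-C1 human cells, read out by a cell viability assay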
Description: SANGER: Inhibition of human SNU-C1 cell growth in a cell viability assay.

GDM-1 = assay: cells; type: functional, cell-based, Homo sapiens; settings: Homo sapiens, GDM-1; read-out: IC50;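 note: cell viability readout used to measure growth inhibition of human GDM-1 cells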
Description: SANGER: Inhibition of human GDM-1 cell growth in a cell viability assay.

Measured: IC50

O=S(=O)(O)c1ccc2cc(/N=N/c3cc(S(=O)(=O)O)c4cccnc4c3O)ccc2c1
> 16 µM: MEL-JUSO | HSC-2 | NCI-H2141 | UMC-11 | OE19 | SW780 | NCI-H1417 | PC-3 | NCI-H1437 | BHT-101 | NUGC-3 | KYSE-410 | 769-P | KU-19-19 | NCI-H522 | NALM-6 | BPH-1 | COR-L279 | TYK-nu | BC-3 | MKN-7 | SW626 | DMS-79 | NCI-H187 | T84 | LC4-1 | RD | SW837 | Huh-7 | RMG-I | OAW-28 | WM-115 | OPM-2 | CAL-72 | MDA-MB-231 | K052 | MeWo | UACC-812 | NCI-H1694 | SW1990 | NCI-H1755 | A2780 | YT | SK-N-AS | SK-MM-2 | RPMI-2650 | ST486 | NCI-H1882 | HO-1-N-1 | DBTRG-05MG | HCC 2998 | BEN | TE-15 | P31-FUJ | YKG-1 | HuP-T4 | SW1417 | SNU-C1 | GDM-1
